Measurements: US7759345B2, “Antitumoral derivatives of ET-743” (priority 2001, dated 2010)
pIC50: −log10 of the molar value. Where two headings read alike, the source gives them in different places.

Key:
[1] = test system: A-549; assay: Inhibition of cell growth by counting cells, A-549; format: cell-based, human; details: Homo sapiens, A549, 72 h, read-out: IC50 (molar) A-549
Protocol: (§1) 1°.—Inhibition of Cell Growth by Counting Cells.
(§2) This form of the assay employs 24 well multidishes of 16 mm diameter (Bergeron, 1984; Schroeder, 1981). The tumor cell lines employed are: P-388 (ATCC CCL 46), suspension culture of a lymphoid neoplasm from a DBA/2 mouse; A-549 (ATCC CCL 185), monolayer culture of a human lung carcinoma; HT-29 (ATCC HTB-38), monolayer culture of a human colon carcinoma; MEL-28 (ATCC HTB-72), monolayer culture of a human melanoma and DU-145 (ATCC HTB-81), monolayer culture of a human prostate carcinoma.
(§3) Cells were maintained, in logarithmic phase of growth in Eagle's Minimum Essential Medium, with Earle's Balanced Salts, with non-essential amino acids, with 2.0 mM L-Glutamine, without sodium bicarbonate (EMEM/neaa), supplemented with 10% Fetal Calf Serum (FCS), 10^−2 M. sodium bicarbonate and 0.1 U/l penicillin G+0.1 g/l streptomycin sulfate. For the experiments, cells are harvested from subconfluent cultures using trypsin and resuspended in fresh medium before plating.
(§4) A-549, HT-29, MEL-28 and DU-145 cells were seeded into 16 mm diameter wells at 1×10^4 cells per well in 1 ml aliquots of EMEM 5% FCS containing different concentrations of the sample to be tested. A separate set of cultures without drug was seeded as control of growth, to ensure that cells remained in exponential phase of growth. All determinations are carrying out in duplicate. After three days of incubation at 37° C., 5% CO2 in a 98% humid atmosphere cells were stained with 0.1% crystal violet. An approximately IC50 was determined by comparing the growth in wells with drug to the growth in wells control.
(§5) For quantifying the activity, after the incubation time, cells are trypsinized and counted in a Coulter Counter ZM. All counts (net cells per well), represent the average of duplicate wells. % G, percent of growth relative to cultures without drug. The results of these assays are used to generate dose-response curves from which more precise IC50 values are determined (sample concentration which produces 50% cell growth inhibition).
(§6) Obtained results may predict the usefulness of a certain drug as a potential cancer treatment. For this technique, compounds which show IC50 values smaller than 1 μg/ml are selected to continue with further studies. IC50's data allow to predict that not only could a drug be cystostatic, but also it could have a potential in terms of tumor reduction.

[2] = test system: MEL-28; assay: Inhibition of cell growth by counting cells, MEL-28; format: cell-based, human; details: Homo sapiens, SK-MEL-28, 72 h, read-out: IC50 (molar) MEL-28
Protocol: as §1, §2, §3, §4, §5, §6

[3] = test system: P-388; assay: Inhibition of cell growth by counting cells, P-388; format: cell-based, mouse; details: Mus musculus, P388, 72 h, read-out: IC50 (molar) P-388
Protocol: as §1, §2, §3
P-388 cells were seeded into 16 mm diameter wells at 1×10^4 cells per well in 1 ml aliquots of EMEM 5% FCS containing different concentrations of the sample to be tested. A separate set of cultures without drug was seeded as control of growth, to ensure that cells remained in exponential phase of growth. All determinations are carrying out in duplicate.
as §5, §6

[4] = test system: HT-29; assay: Inhibition of cell growth by counting cells, HT-29; format: cell-based, human; details: Homo sapiens, HT-29, 72 h, read-out: IC50 (molar) HT-29
Protocol: as §1, §2, §3, §4, §5, §6

SMILES	pIC50 ([1]; three days of incubation)	pIC50 ([2]; three days of incubation)	pIC50 ([3]; three days of incubation)	pIC50 ([4]; three days of incubation)	further results
COc1cc2c(cc1OC(C)=O)CCN[C@]21CS[C@@H]2c3c(OC(C)=O)c(C)c4c(c3[C@H](COC1=O)N1C2[C@H]2c3c(cc(C)c(OC)c3O)C[C@@H]([C@@H]1C#N)N2C)OCO4 (stereo partly drawn) [Compound 2]	9.83	9.83	9.83	9.83	
COc1cc2c(cc1OC(C)=O)CCN[C@]21CS[C@@H]2c3c(OC(C)=O)c(C)c4c(c3[C@H](COC1=O)N1C2[C@H]2c3c(cc(C)c(OC)c3OC(C)=O)C[C@@H]([C@@H]1C#N)N2C)OCO4 (stereo partly drawn) [Compound 6]	8.53	8.53	8.85	8.53	
C=CCOC(=O)Oc1cc2c(cc1OC)[C@@]1(CS[C@@H]3c4c(OC(C)=O)c(C)c5c(c4[C@H](COC1=O)N1C3[C@H]3c4c(cc(C)c(OC)c4O)C[C@@H]([C@@H]1C#N)N3C)OCO5)NCC2 (stereo partly drawn) [Compound 25]	9.85	9.85	9.85	9.85	
C=CCOC(=O)Oc1cc2c(cc1OC)[C@@]1(CS[C@@H]3c4c(OC(C)=O)c(C)c5c(c4[C@H](COC1=O)N1C3[C@H]3c4c(cc(C)c(OC)c4OC(=O)OCC=C)C[C@@H]([C@@H]1C#N)N3C)OCO5)NCC2 (stereo partly drawn) [Compound 26]	8.27	8.27	8.27	8.27	
CCOc1cc2c(cc1OC)[C@@]1(CS[C@@H]3c4c(OC(C)=O)c(C)c5c(c4[C@H](COC1=O)N1C3[C@H]3c4c(cc(C)c(OC)c4O)C[C@@H]([C@@H]1C#N)N3C)OCO5)NCC2 (stereo partly drawn) [Compound 37]	9.90	9.90	9.90	9.90	
CCCOc1cc2c(cc1OC)[C@@]1(CS[C@@H]3c4c(OC(C)=O)c(C)c5c(c4[C@H](COC1=O)N1C3[C@H]3c4c(cc(C)c(OC)c4O)C[C@@H]([C@@H]1C#N)N3C)OCO5)NCC2 (stereo partly drawn) [Compound 39]	9.21	9.21	9.21	9.21	
COc1cc2c(cc1O)CCN[C@]21CS[C@@H]2c3c(OC(C)=O)c(C)c4c(c3[C@H](COC1=O)N1C2[C@H]2c3c(cc(C)c(OC)c3OC(C)=O)C[C@@H]([C@@H]1C#N)N2C)OCO4 (stereo partly drawn) [Compound 51]	8.91	8.91	9.21	8.91	
COc1cc2c(cc1OP(=O)(OCc1ccccc1)OCc1ccccc1)CCN[C@]21CS[C@@H]2c3c(OC(C)=O)c(C)c4c(c3[C@H](COC1=O)N1C2[C@H]2c3c(cc(C)c(OC)c3O)C[C@@H]([C@@H]1C#N)N2C)OCO4 (stereo partly drawn) [Compound 53]					pIC50 [1]: 8.01; pIC50 [2]: 8.01; pIC50 [3]: 8.31; pIC50 [4]: 8.01
COc1cc2c(cc1O)CCN(C)[C@]21CS[C@@H]2c3c(OC(C)=O)c(C)c4c(c3[C@H](COC1=O)N1C2[C@H]2c3c(cc(C)c(OC)c3O)C[C@@H]([C@@H]1C#N)N2C)OCO4 (stereo partly drawn) [Compound 54]	9.89	9.89	9.89	9.89	
C=CCOc1c(C)c2c(c3c1[C@H]1SC[C@]4(NCCc5cc(O)c(OC)cc54)C(=O)OC[C@@H]3N3C1[C@H]1c4c(cc(C)c(OC)c4OCC=C)C[C@@H]([C@@H]3C#N)N1C)OCO2 (stereo partly drawn) [Compound 156]	7.91			7.91	
COc1cc2c(cc1O)CCN[C@]21CS[C@@H]2c3c(OCc4ccccc4)c(C)c4c(c3[C@H](COC1=O)N1C2[C@H]2c3c(cc(C)c(OC)c3O)C[C@@H]([C@@H]1C#N)N2C)OCO4 (stereo partly drawn) [Compound 157]	9.91			9.91	
COc1cc2c(cc1O)CCN[C@]21CS[C@@H]2c3c(OCc4ccccc4)c(C)c4c(c3[C@H](COC1=O)N1C2[C@H]2c3c(cc(C)c(OC)c3OCc3ccccc3)C[C@@H]([C@@H]1C#N)N2C)OCO4 (stereo partly drawn) [Compound 158]	8.96			8.96	
COc1cc2c(cc1O)CCN[C@]21CS[C@@H]2c3c(OC(=O)C(F)(F)F)c(C)c4c(c3[C@H](COC1=O)N1C2[C@H]2c3c(cc(C)c(OC)c3OC(=O)C(F)(F)F)C[C@@H]([C@@H]1C#N)N2C)OCO4 (stereo partly drawn) [Compound 160]	8.96			8.96	
COc1cc2c(cc1O)CCN[C@]21CS[C@@H]2c3c(OC(=O)/C=C/c4ccccc4)c(C)c4c(c3[C@H](COC1=O)N1C2[C@H]2c3c(cc(C)c(OC)c3OC(=O)/C=C/c3ccccc3)C[C@@H]([C@@H]1O)N2C)OCO4 (stereo partly drawn) [Compound 162]	8.29			8.29	
CCCC(=O)Oc1c(C)c2c(c3c1[C@H]1SC[C@]4(NCCc5cc(O)c(OC)cc54)C(=O)OC[C@@H]3N3C1[C@H]1c4c(cc(C)c(OC)c4OC(=O)CCC)C[C@@H]([C@@H]3O)N1C)OCO2 (stereo partly drawn) [Compound 164]	7.94			7.94	
CCCCCCCC(=O)Oc1c(C)c2c(c3c1[C@H]1SC[C@]4(NCCc5cc(O)c(OC)cc54)C(=O)OC[C@@H]3N3C1[C@H]1c4c(cc(C)c(OC)c4OC(=O)CCCCCCC)C[C@@H]([C@@H]3O)N1C)OCO2 (stereo partly drawn) [Compound 169]	8.99			8.99	
CCOc1c(C)c2c(c3c1[C@H]1SC[C@]4(NCCc5cc(O)c(OC)cc54)C(=O)OC[C@@H]3N3C1[C@H]1c4c(cc(C)c(OC)c4O)C[C@@H]([C@@H]3O)N1C)OCO2 (stereo partly drawn) [Compound 177]	9.87			9.87	
CCCOc1c(C)c2c(c3c1[C@H]1SC[C@]4(NCCc5cc(O)c(OC)cc54)C(=O)OC[C@@H]3N3C1[C@H]1c4c(cc(C)c(OC)c4O)C[C@@H]([C@@H]3O)N1C)OCO2 (stereo partly drawn) [Compound 178]	8.88			8.88	
C=CCOc1c(C)c2c(c3c1[C@H]1SC[C@]4(NCCc5cc(O)c(OC)cc54)C(=O)OC[C@@H]3N3C1[C@H]1c4c(cc(C)c(OC)c4OCC=C)C[C@@H]([C@@H]3O)N1C)OCO2 (stereo partly drawn) [Compound 179]	7.90			7.90	
COc1cc2c(cc1O)CCN[C@]21CS[C@@H]2c3c(OCc4ccccc4)c(C)c4c(c3[C@H](COC1=O)N1C2[C@H]2c3c(cc(C)c(OC)c3O)C[C@@H]([C@@H]1O)N2C)OCO4 (stereo partly drawn) [Compound 180]	9.21			9.21	
COc1cc2c(cc1O)CCN[C@]21CS[C@@H]2c3c(OCc4ccccc4)c(C)c4c(c3[C@H](COC1=O)N1C2[C@H]2c3c(cc(C)c(OC)c3OCc3ccccc3)C[C@@H]([C@@H]1O)N2C)OCO4 (stereo partly drawn) [Compound 181]	7.95			7.95	
CCCCCCCC(=O)Oc1cc2c(cc1OC)[C@@]1(CS[C@@H]3c4c(OC(C)=O)c(C)c5c(c4[C@H](COC1=O)N1C3[C@@H]3N[C@@H](Cc4cc(C)c(OC)c(OC(=O)CCCCCCC)c43)[C@@H]1O)OCO5)NCC2 (stereo partly drawn) [Compound 214]	8.30			8.30	
CCCCCCCCCCCCCCCC(=O)Oc1cc2c(cc1OC)[C@@]1(CS[C@@H]3c4c(OC(C)=O)c(C)c5c(c4[C@H](COC1=O)N1C3[C@@H]3N[C@@H](Cc4cc(C)c(OC)c(OC(=O)CCCCCCCCCCCCCCC)c43)[C@@H]1O)OCO5)NCC2 (stereo partly drawn) [Compound 216]	7.09			7.09	
COc1cc2c(cc1O)CCN[C@]21CS[C@@H]2c3c(OC(C)=O)c(C)c4c(c3[C@H](COC1=O)N1C2[C@H]2c3c(cc(C)c(O)c3O)C[C@@H]([C@@H]1O)N2C)OCO4 (stereo partly drawn) [Compound 221]	8.87			8.87	
